Patent publication US20180318275A1, “COMBINATION THERAPY USING PI3K INHIBITOR AND MDM2 INHIBITOR” (Novartis AG, priority 2015, published 2018)

How the values were obtained:
Type in all cases: cell-based
LoVo = assay: Cell proliferation (cell count by microscopy), Example 3; details: Homo sapiens, single agent, 96 h, cell count relative to DMSO
Experimental: (§1) COMPOUNDS A, B and C were dissolved in 100% DMSO (Sigma, Catalog number D2650) at concentrations of 20 mM and stored at −20° C. until use. Compounds were arrayed in drug master plates (Greiner, Catalog number 788876) and serially diluted 3-fold (7 steps) at 2000× concentration.
(§2) To test the effect of the combination of COMPOUND A, COMPOUND B, and COMPOUND C on cell proliferation cells were plated in black 384-well microplates with clear bottom (Matrix/Thermo Scientific, Catalog number 4332) in 50 μL media per well at cell densities between 500 and 1250 cells/well (Table 1 above) and allowed to incubate at 37 degrees, 5% CO2 for 24 h. After 24 h one 384-well plate per cell line was prepared for cell counting by microscopy (see below) without receiving treatment (=‘baseline’). The other cell plates were treated by transferring 25 nL of the 2000× compound from drug master plates using an ATS acoustic liquid dispenser (ECD Biosystems) and resulting in a final 1× concentration. COMPOUND A was used over a final concentration range of 13 nM-10 μM, COMPOUND B was used over a final concentration range of 13 nM-10 μM, and COMPOUND C was used over a final concentration range of 13 nM-10 μM (7 1:3 dilution steps). In order to assess the effect of the triple combination all individual COMPOUNDS (A, B, C), all three pair wise combinations (A+B, A+C, B+C), and the triple combination (A+B+C) were tested in the same experiment. Pair wise combinations and the triple combination were tested at a fixed ratio of 1:1 (for drug pairs) and 1:1:1 (for the drug triple) at each dilution resulting in 7 combination conditions per treatment. […] After compound addition 50 nL of 2 mM CellEvent Caspase-3/7 Green Detection Reagent (ThermoFisher, Catalog number C10423) were added to one of the three replicates using the HP D300 Digital Dispenser (Tecan). Caspase 3/7 induction was measured as a proxy for apoptosis induced by the treatments. Cells were treated for 72 h to 96 h depending on their doubling time (Table 1), and Caspase 3/7 activation was measured every 24 h by microscopy using an InCell Analyzer 2000 (GE Healthcare) equipped with a 4× objective and FITC excitation/emission filters. At the end of the treatment cells were prepared for cell counting by microscopy. Cells were fixed and permeabilised for 45 minutes in 4% PFA (Electron Microscopy Sciences, Catalog number 15714), 0.12% TX-100 (Electron Microscopy Sciences, Catalog number 22140) in PBS (Boston Bioproducts, Catalog number BM-220). After washing cells three times with PBS their DNA was stained for 30 minutes with Hoechst 33342 (ThermoFisher, Catalog number H3570) at a final concentration of 4 μg/mL. Cells were washed three times with PBS and then plates were heat-sealed using a PlateLoc (Agilent Technologies) with aluminum seals (Agilent Technologies, Catalog number 06644-001) and stored at 4° C. until imaging. All cells per well/treatment were captured in a single image by fluorescence microscopy using an InCell Analyzer 2000 (GE Healthcare) equipped with a 4× objective and DAPI excitation/emission filters.
(§3) Images were analyzed after adapting previously described methods (Horn, Sandmann et al. 2011, Nat. Methods 8(4): 341-346) and using the Bioconductor package EBImage in R (Pau, Fuchs et al. 2010, Bioinformatics 26(7):979-981). Objects in both channels, DAPI (for Hoechst/DNA) and FITC (for Caspase 3/7), were segmented separately by adaptive thresholding and counted. A threshold for Caspase 3/7 positive objects was defined manually per cell line after comparing negative controls (DMSO) and positive controls (Staurosporine). By analyzing 17 additional object/nuclei features in the DNA channel (shape and intensity features) debris/fragmented nuclei were identified. To this end per cell line the distributions of the additional features between positive controls (Staurosporine) and negative controls (DMSO) were compared manually. […]

LS-180 = assay: as above; details: Homo sapiens, LS180; LS-160 (so in the source), single agent, 72 h, cell count relative to DMSO
Experimental: as §1, §2, §3

GP2d = assay: as above; details: single agent, 72 h, cell count relative to DMSO, unit (micromolar, top dose 10 μM)
Experimental: as §1, §2, §3

RKO = assay: as above; details: Homo sapiens, single agent, 72 h, cell count relative to DMSO
Experimental: as §1, §2, §3

HCT-116 = assay: as above; details: Homo sapiens; HCT-116, single agent, 72 h, cell count relative to DMSO
Experimental: as §1, §2, §3

[1] = tested on: 5 TP53 wild type colorectal cancer cell lines; assay: Cell proliferation over the cell line panel, Example 3; details: Example 3, panel of 5 lines, 13 nM-10 μM
Experimental: To test the effect of the combination of COMPOUND A, COMPOUND B, and COMPOUND C on cell proliferation cells were plated in black 384-well microplates with clear bottom (Matrix/Thermo Scientific, Catalog number 4332) in 50 μL media per well at cell densities between 500 and 1250 cells/well (Table 1 above) and allowed to incubate at 37 degrees, 5% CO2 for 24 h. After 24 h one 384-well plate per cell line was prepared for cell counting by microscopy (see below) without receiving treatment (=‘baseline’). The other cell plates were treated by transferring 25 nL of the 2000× compound from drug master plates using an ATS acoustic liquid dispenser (ECD Biosystems) and resulting in a final 1× concentration. COMPOUND A was used over a final concentration range of 13 nM-10 μM, COMPOUND B was used over a final concentration range of 13 nM-10 μM, and COMPOUND C was used over a final concentration range of 13 nM-10 μM (7 1:3 dilution steps). In order to assess the effect of the triple combination all individual COMPOUNDS (A, B, C), all three pair wise combinations (A+B, A+C, B+C), and the triple combination (A+B+C) were tested in the same experiment. […] Caspase 3/7 induction was measured as a proxy for apoptosis induced by the treatments. Cells were treated for 72 h to 96 h depending on their doubling time (Table 1), and Caspase 3/7 activation was measured every 24 h by microscopy using an InCell Analyzer 2000 (GE Healthcare) equipped with a 4× objective and FITC excitation/emission filters. […] All cells per well/treatment were captured in a single image by fluorescence microscopy using an InCell Analyzer 2000 (GE Healthcare) equipped with a 4× objective and DAPI excitation/emission filters.
Images were analyzed after adapting previously described methods (Horn, Sandmann et al. 2011, Nat. Methods 8(4): 341-346) and using the Bioconductor package EBImage in R (Pau, Fuchs et al. 2010, Bioinformatics 26(7):979-981). Objects in both channels, DAPI (for Hoechst/DNA) and FITC (for Caspase 3/7), were segmented separately by adaptive thresholding and counted. […]

IC50 (LoVo) | IC50 (HCT-116) | Structure (SMILES) | IC50 (LS-180) | IC50 (GP2d) | IC50 (RKO) | Single agent growth inhibition, in words [1]
> 10000 nM | 9800 nM | Cc1nc(NC(=O)N2CCC[C@H]2C(N)=O)sc1-c1ccnc(C(C)(C)C(F)(F)F)c1 [COMPOUND A, (S)-Pyrrolidine-1,2-dicarboxylic acid 2-amide 1-({4-methyl-5-[2-(2,2,2-trifluoro-1,1-dimethyl-ethyl)-pyridin-4-yl]-thiazol-2-yl}-amide)] | > 10000 nM | 500 nM | 3900 nM | inhibited the growth of 2 of the cell lines with micromolar IC50 values, and was active only at the highest dose (10 μM) in the 3 other lines
600 nM | 100 nM | COc1cc2c(cc1OC(C)C)[C@H](c1ccc(Cl)cc1)N(c1ccc(N(C)C[C@H]3CC[C@H](N4CCN(C)C(=O)C4)CC3)cc1)C(=O)C2 [COMPOUND B, (S)-1-(4-Chloro-phenyl)-7-isopropoxy-6-methoxy-2-(4-{methyl-[4-(4-methyl-3-oxo-piperazin-1-yl)-trans-cyclohexylmethyl]-amino}-phenyl)-1,4-dihydro-2H-isoquinolin-3-one] | 700 nM | 800 nM | 1200 nM | inhibited the growth of cell lines with sub-micromolar to micromolar IC50 values
